This note sets out measurements from patent US20230190867A1, “METHODS OF TREATING NASH AND COMPOSITIONS THEREFORE” (BIOINCEPT, LLC, priority 2018, published 2023).

One assay concerns Kv flux. Type of assay: cell-based. Details: Effectiveness: scale not given here. The following applies: for Effectiveness / Kv flux 100% in nt (stimulus buffer only): conc. 0.625 uM; for K+ inhibition as compared with sPIF: dose comparison analysis. As to the method: Currently, effective immunomodulatory agents, with minimal side effects, that can regulate inflammation in the liver to promote liver health in the setting of chronic liver disease have not been developed and they are desperately needed. […] In addition, the effect of TxpIC on these cells were tested This is a potent chemical mimicking viarl infection in the liver.

Assay [1] concerns TxpIC-induced primary human hepatocytes (PHH). In words: Inflammatory gene expression in TxpIC-induced primary human hepatocytes. Type of assay: cell-based. The following applies: for Tx pIC induced CxCl10 expression: as compared with sPIF; for Tx pIC induced RSAD2: sPIF 200 nM. From the text: (§1) Methods Primary human hepatocytes (PHHs) and HepaRG™ cells were studied. The later are terminally differentiated hepatic cells derived from a human hepatic progenitor cell line that retains many characteristics of primary human hepatocytes were purchased from Thermo Fisher Scientific Inc. (MA, USA). PHHs were also obtained from Dr. David Geller, at the University of Pittsburgh, through the NIH funded Liver Tissue and Cell Distribution System (LTCDS) and maintained in Williams E Medium containing cell maintenance supplement reagents from Invitrogen (Carlsbad, Calif.). The HCV JFH strain was used in cell culture experiments at an M.O.I. of 0.5-1. […] In other experiments TxpIC at 500 ng/ml were added to the cells. This chemical replicates a viral induced inflammation and therefore it can be used in different cell types also when hepatitis C infection is difficult to induce. […] Li, K. (2012). Hepatology, 55: 666-675. For analysis of endogenous mRNA levels, total RNA was isolated from cells using the RNeasy RNA extraction kit (Qiagen, Valencia, Calif.) and cDNA synthesis was performed using 0.5 μg of total RNA (Transcriptor First Strand cDNA Synthesis Kit, Roche, Basel, Switzerland). Fluorescence real-time PCR analysis was preformed using an ABI 7500 instrument (Applied Biosystems, Foster City, Calif.) and TaqMan gene expression assay (Applied Biosystems). Relative amounts of mRNA, determined using a FAM-Labeled TaqMan Probe, were normalized to the 18S ribosomal RNA levels in each PCR reaction using the eukaryotic 18S rRNA endogenous control from ABI (VIC/MGB Probe, Primer Limited, Cat #4319413E). The delta 2(-Delta Delta C(T)) method was used for quantitation of relative mRNA levels and fold induction.

The subject of assay [2] is Hepatitis C (HCV)-induced primary human hepatocytes (PHH). The assay can be described thus: Inflammatory gene expression in HCV-induced primary human hepatocytes. Type of assay: cell-based.
Source text: as §1

In assay [3] the test system is HepaRG cells induced by TxpIC. In words: Inflammatory gene expression in TxpIC-induced HepaRG cells (real-time PCR). Type of assay: cell-based, human. Particulars: TxpIC 500 ng/ml. The text has this: Methods Primary human hepatocytes (PHHs) and HepaRG™ cells were studied. The later are terminally differentiated hepatic cells derived from a human hepatic progenitor cell line that retains many characteristics of primary human hepatocytes were purchased from Thermo Fisher Scientific Inc. (MA, USA). PHHs were also obtained from Dr. David Geller, at the University of Pittsburgh, through the NIH funded Liver Tissue and Cell Distribution System (LTCDS) and maintained in Williams E Medium containing cell maintenance supplement reagents from Invitrogen (Carlsbad, Calif.). The HCV JFH strain was used in cell culture experiments at an M.O.I. of 0.5-1. […] In other experiments TxpIC at 500 ng/ml were added to the cells. […] Fluorescence real-time PCR analysis was preformed using an ABI 7500 instrument (Applied Biosystems, Foster City, Calif.) and TaqMan gene expression assay (Applied Biosystems). Relative amounts of mRNA, determined using a FAM-Labeled TaqMan Probe, were normalized to the 18S ribosomal RNA levels in each PCR reaction using the eukaryotic 18S rRNA endogenous control from ABI (VIC/MGB Probe, Primer Limited, Cat #4319413E). The delta 2(-Delta Delta C(T)) method was used for quantitation of relative mRNA levels and fold induction.

In the case of MVRIFPGSANKPSDD [PIF-pos2], in the assay on Kv flux, the Effectiveness is given as −17.02 and the “Kv flux 100% in nt (stimulus buffer only)” value (from here on “Kv flux 100% in nt”) is recorded as 117%.

In the case of MVRIKPWSANKPSDD [PIF-pos6], in the assay on Kv flux, the Effectiveness is reported as −20.45 and the “Kv flux 100% in nt” value amounted to 120.5%.

Consider MVRIIPGSANKPSDD [PIF-pos4], for which, in the assay with Kv flux, the Effectiveness is recorded as −1.117 and the “Kv flux 100% in nt” value is given as 101.1%.

On to MVRIKPGSANWPSDD [PIF-pos8], for which, in the assay with Kv flux, the Effectiveness is 45.79 and the “Kv flux 100% in nt” value was 54.21%.

Take MVRIYPGSANKPSDD [PIF-pos3]: in assay [1], the “500 ng/ml TpxIC induced CCL5” value was “Inhibitory effect”, the “Tx pIC induced CxCl10 expression” value is recorded as “inhibit” and the “Tx pIC induced RSAD2” value was “inhibit”. In assay [2], the “HCV induced CXCL10 expression” value was “inhibit” and the “INFa induced suppression of HCV” value was “potentiate”. Further, in the assay with Kv flux, the Effectiveness came out at 52.05, the “Kv flux 100% in nt” value was found to be 47.95% and the “K+ inhibition as compared with sPIF” value is on record as “increased K+ inhibition as compared with sPIF”.

As to MVRIKPGSANKWSDD [PIF-pos9], in the assay on Kv flux, the Effectiveness is reported as 34.09 and the “Kv flux 100% in nt” value was 65.91%.

MVRIKPYSANKPSDD [PIF-pos5]: in the assay on Kv flux, the Effectiveness is 22.81 and the “Kv flux 100% in nt” value turned out to be 77.19%.

In the case of MVRIKPGSWNKPSDD [PIF-pos7], in the assay on Kv flux, the Effectiveness is listed as −22.27 and the “Kv flux 100% in nt” value was found to be 122.3%.

For MVRIKPGSANKPSFD [PIF-pos10], the “effect on RSAD2 compared with sPIF” value in assay [3] is given as “similar”. In assay [3] (time dependent), the “suppression of CxCL10, IL28, CCL5 compared with sPIF” value is listed as “more pronounced suppression than sPIF”. In assay [1], the “500 ng/ml TpxIC induced CCL5” value is reported as “Inhibitory effect”, the “Tx pIC induced CxCl10 expression” value is on record as “inhibit” and the “Tx pIC induced RSAD2” value was “inhibit”. In assay [2], the “HCV induced CXCL10 expression” value is given as “inhibit”, the “HCV induced IL28 expression” value is “Inhibitory effect” and the “INFa induced suppression of HCV” value is “potentiate”. In the assay on Kv flux, the Effectiveness is on record as 53.72, the “Kv flux 100% in nt” value was found to be 46.28% and the “K+ inhibition as compared with sPIF” value is “increased K+ inhibition as compared with sPIF”.

MVRIWPGSANKPSDD [PIF-pos1]: in the assay with Kv flux, the Effectiveness turned out to be 47.8 and the “Kv flux 100% in nt” value is reported as 52.2%.
